Literature values, collected in patent US20140105862A1, “STREPTOMYCES MICROFLAVUS STRAINS AND METHODS OF THEIR USE TO CONTROL PLANT DISEASES AND PESTS” (priority 2012, published 2014).

What was measured:
[1] = test system: parasites on animals, such as pin worm; settings: according to U.S. Pat. No. 3,849,398
[2] = test system: gram-positive, gram-negative bacteria and tubercule bacillus; settings: according to U.S. Pat. No. 3,849,398
powdery mildew = settings: according to GB 1 507 193

| Structure (SMILES) | parasiticidal action [1] | antibacterial activity [2] | antifungal activity (powdery mildew) |
| --- | --- | --- | --- |
| CNCC(=O)NC(CO)C(=O)NC1C(C(N)=O)OC(n2ccc(N)nc2=O)C(O)C1O (stereo not drawn) [gougerotin] | parasiticidal action | weak antibacterial activity | – |
| NC(N)=NCC(O)CC(O)(C(=O)O)[C@H]1O[C@@H](n2cc(CO)c(N)nc2=O)C=C[C@@H]1NC(=O)[C@@H](N)CO (stereo partly drawn) [Strain B-98891] | – | – | antifungal activity |
